Source: patent publication US12358902B2, “5-(2,5-bis(4-chloro-2-isopropylphenyl)thiophen-3-yl)-1H-tetrazole for the topical treatment of bacterial infections” (DENOVAMED INC., priority 2017, dated 2025)

Legend:
[1] = tested on: MRSA (ATCC #33591); assay: rabbit ischemic wound model; format: in vivo, New Zealand white rabbits
Method: 5-(2,5-bis(4-chloro-2-isopropylphenyl)thiophen-3-yl)-1H-tetrazole was tested for its efficacy against infection in the rabbit ischemic wound model, the gold standard animal model mimicking human DUI. In this model, the ear is made ischemic by division of central and rostral nutrient arteries of New Zealand white rabbits. New Zealand White rabbits were employed for this study and their husbandry and experimental manipulation adhered to standard Guides for the Care and Use of Laboratory Animals (2001). An incision was made to the level of bare cartilage at the base of the ear and followed by injection intradermally with epinephrine to obtain vasoconstriction and aid with skin detachment. Skin is separated from the underlying perichondrium and removed with a 6.0 mm aortic biopsy punch. Food and water were given ad libidum and animals were acclimatized for 7 days with photoperiods of alternating 12 h light and dark provided, along with analgesic (BUPRENEX™ (buprenorphine) 0.02 mg/kg sc) and anaesthesia (isoflurane (0.5-5% with oxygen carrier 0.5-2 L/min) during procedures.
An ischemia wound healing model was conducted surgically. Each wound was inoculated with 50 μl of 2×10^7 CFU/ml MRSA (ATCC #33591) and dressed. After one day, wounds were treated with either 50 μl control cream containing vehicle (N=4), 50 μl containing mupirocin (N=4), or 50 μl cream containing 5-(2,5-bis(4-chloro-2-isopropylphenyl)thiophen-3-yl)-1H-tetrazole (N=8) daily. Clinical observations were performed on days 1, 3, 5, 7, 10 and 14. Wounds were assessed and observations recorded using the Draize scoring system. Digital photographs of each wound were obtained and documented.
On day 14 post-wounding, under anesthesia, the animals were euthanized with an intravenous injection of BEUTHANASIA-D™ ([…] and phenytoin sodium) at a dosage of 150 mg/kg of body weight. Specimens including the entire wound, along with approximately 2-3 mm of the normal unwounded skin margins were harvested. Each ear wound specimen was sectioned into halves. For one half of the wound, the wound was placed into a container with 10% neutral buffered formalin and processed for routine histological evaluation. Wound organization was scored for four parameters on a scale of 0-4 at the wound site for inflammation, granulation, angiogenesis, and epithelialization. Wounds were characterized in a blinded manner by a board certified member of the College of American Pathologists. The other half of the wound was weighed (mg) in a sterile Petri dish, then placed in a sterile disposable tissue grinder and homogenized for quantitative microbiology. The tube containing the ground tissue sample was filled with 5 ml 0.85% sterile saline. Five 1:10 serial dilutions were then prepared with 0.5 ml aliquots and 4.5 ml of sterile saline per aliquot. Subsequently, 0.1 ml of the homogenate and each dilution was drop plated on trypticase soy agar and placed in an incubator at 37° C. The number of viable organisms per wound was recorded as cfu/gram of tissue.

[2] = tested on: USA300 MRSA strain; assay: bactericidal activity; format: cell-based
[3] = tested on: mupirocin resistant strains of S. epidermidis; assay: activity against mupirocin resistant strains; format: cell-based
[4] = tested on: Clostridium spp.; assay: activity against Clostridium spp.; format: cell-based
[5] = biological target: LpxA (Escherichia coli, UniProt P0A722); assay: in vitro enzyme assay, selectivity; format: biochemical; conditions: ACP utilizing bacterial enzyme
Chain of LpxA (P0A722 whole entry): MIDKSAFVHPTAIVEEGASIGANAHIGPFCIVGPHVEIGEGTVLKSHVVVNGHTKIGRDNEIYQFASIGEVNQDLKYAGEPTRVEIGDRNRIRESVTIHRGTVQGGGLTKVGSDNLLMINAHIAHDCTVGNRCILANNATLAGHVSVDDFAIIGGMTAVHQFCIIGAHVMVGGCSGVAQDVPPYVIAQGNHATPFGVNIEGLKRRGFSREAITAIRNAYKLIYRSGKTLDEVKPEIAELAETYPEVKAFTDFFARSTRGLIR

[6] = tested on: USA100 MRSA strain; assay: bactericidal activity; format: cell-based
[7] = topical daily, day 14, compared to the control

Question: With CC(C)c1cc(Cl)ccc1-c1cc(-c2nnn[nH]2)c(-c2ccc(Cl)cc2C(C)C)s1 [Test Article, 5-(2,5-bis(4-chloro-2-isopropylphenyl)thiophen-3-yl)-1H-tetrazole] as the molecule, how does the “percent wound contraction over time (FIG. 1)” value ([1]; topical daily to day 14, p<0.001 vs control, p<0.03 vs mupirocin) read?
Answer: better than the mupirocin treated group

Question: What about the “effect on erythema and edema” value ([1]; topical daily, Draize scoring) of the same molecule?
Answer: positive effect

Question: What about the CFU drop [1, 7] of the same molecule?
Answer: 4 log

Question: And the “reduction in bacterial survival” value [1, 7]?
Answer: > 99%

Question: What about the “wound healing and epithelialization” value ([1]; topical daily, versus mupirocin group) of the same molecule?
Answer: significantly better than the mupirocin group

Question: What about the bactericidal activity [2] of the same molecule?
Answer: rapidly bactericidal

Question: And the activity [3]?
Answer: retained activity

Question: What about the activity [4] of the same molecule?
Answer: retained activity

Question: What about the “inhibition of LpxA” value [5] of the same molecule?
Answer: did not inhibit

Question: What about the bactericidal activity [6] of the same molecule?
Answer: rapidly bactericidal
